Laboratory results from patent US20260131009A1, “BIFUNCTIONAL PI3K-ALPHA INHIBITORS AND USES THEREOF” (Relay Therapeutics, Inc., priority 2021, published 2026).

What was measured:
PI3Kα = PI3Kα (Homo sapiens, UniProt P42336, H1047R); test: ADP-Glo IC50 assay; assay type: biochemical; settings: class symbols; key not given
MCF10A = MCF10A IC50 assay; assay type: cell-based; settings: Homo sapiens, MCF-10A; class symbols; key not given
Summary of the method: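 MCF10A cells overexpressing hotspot PIK3CA mutations were seeded at 5,000 per well in supplemented DMEM/F12 and adhered overnight (37 °C, 5% CO₂). Compounds were added acoustically as 12-dose 1:3 series, in duplicate, for 2 hours. Cells were lysed 60 min, then incubated 4 hours at room temperature with CisBio phospho-AKT (Ser473) HTRF antibodies and read on an Envision 2105. IC₅₀ for AKT phosphorylation came from Genedata software and was reported as binned categories.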

Chain of PI3Kα (P42336 whole entry H1047R): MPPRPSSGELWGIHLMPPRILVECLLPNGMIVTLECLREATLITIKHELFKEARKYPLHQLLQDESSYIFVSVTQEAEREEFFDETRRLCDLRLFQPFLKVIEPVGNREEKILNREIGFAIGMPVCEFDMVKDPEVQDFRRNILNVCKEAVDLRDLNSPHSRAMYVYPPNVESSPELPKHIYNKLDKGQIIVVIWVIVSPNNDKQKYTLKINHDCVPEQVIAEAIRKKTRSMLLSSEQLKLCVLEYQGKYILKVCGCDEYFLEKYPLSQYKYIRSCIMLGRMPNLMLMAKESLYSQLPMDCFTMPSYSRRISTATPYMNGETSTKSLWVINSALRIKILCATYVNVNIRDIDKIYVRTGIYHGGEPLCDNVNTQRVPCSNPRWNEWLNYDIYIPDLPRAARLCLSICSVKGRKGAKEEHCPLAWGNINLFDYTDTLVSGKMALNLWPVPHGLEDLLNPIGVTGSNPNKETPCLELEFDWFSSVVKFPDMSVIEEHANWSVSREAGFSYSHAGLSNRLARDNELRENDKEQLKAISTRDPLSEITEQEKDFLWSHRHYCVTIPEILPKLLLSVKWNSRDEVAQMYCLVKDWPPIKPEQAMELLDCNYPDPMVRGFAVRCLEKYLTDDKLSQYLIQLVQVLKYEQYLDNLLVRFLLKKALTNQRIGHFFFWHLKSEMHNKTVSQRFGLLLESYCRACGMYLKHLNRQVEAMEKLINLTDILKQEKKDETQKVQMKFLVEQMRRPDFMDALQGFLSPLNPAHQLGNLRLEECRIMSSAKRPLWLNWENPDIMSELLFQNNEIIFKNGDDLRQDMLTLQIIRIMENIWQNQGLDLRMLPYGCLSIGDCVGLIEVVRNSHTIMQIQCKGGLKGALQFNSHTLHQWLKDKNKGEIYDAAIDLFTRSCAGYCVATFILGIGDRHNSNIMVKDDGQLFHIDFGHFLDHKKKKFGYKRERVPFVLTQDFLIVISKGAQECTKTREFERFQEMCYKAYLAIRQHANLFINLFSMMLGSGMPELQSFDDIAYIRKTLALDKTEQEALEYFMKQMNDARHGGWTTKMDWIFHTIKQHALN
Chain of PI3Kα (P27986 whole entry partner): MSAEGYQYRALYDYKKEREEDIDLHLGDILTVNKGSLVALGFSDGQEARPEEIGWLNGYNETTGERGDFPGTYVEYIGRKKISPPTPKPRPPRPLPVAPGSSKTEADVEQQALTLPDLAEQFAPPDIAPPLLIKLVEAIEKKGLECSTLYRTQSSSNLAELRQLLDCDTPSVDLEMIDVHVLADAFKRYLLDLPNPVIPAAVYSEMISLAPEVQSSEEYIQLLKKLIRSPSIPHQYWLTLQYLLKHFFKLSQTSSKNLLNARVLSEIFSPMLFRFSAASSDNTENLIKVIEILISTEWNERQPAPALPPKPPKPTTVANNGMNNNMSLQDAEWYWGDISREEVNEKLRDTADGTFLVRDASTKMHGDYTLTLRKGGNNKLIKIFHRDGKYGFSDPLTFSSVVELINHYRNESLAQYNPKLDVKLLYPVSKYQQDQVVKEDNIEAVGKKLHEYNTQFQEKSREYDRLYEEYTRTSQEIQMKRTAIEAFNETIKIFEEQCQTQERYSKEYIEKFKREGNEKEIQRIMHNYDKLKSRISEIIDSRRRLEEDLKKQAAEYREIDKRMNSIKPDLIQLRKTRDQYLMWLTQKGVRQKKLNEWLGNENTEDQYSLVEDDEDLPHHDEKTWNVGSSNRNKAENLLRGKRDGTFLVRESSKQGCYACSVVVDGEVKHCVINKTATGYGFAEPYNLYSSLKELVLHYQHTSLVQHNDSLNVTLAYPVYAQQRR

IC50 (PI3Kα) [nM] | Compound | IC50 (MCF10A) [nM]
1000 to 10000 | Cc1cc([C@@H](C)Nc2ccccc2C(=O)O)c2oc(N3CCN(C(=O)CCCCCCCNc4cccc5c4C(=O)N(C4CCC(=O)NC4=O)C5=O)CC3)cc(=O)c2c1 (stereo partly shown) [Example I-143] | 
1000 to 10000 | Cc1cc([C@@H](C)Nc2ccccc2C(=O)O)c2oc(N3CCN(C(=O)CCOCCNc4ccc5c(c4)C(=O)N(C4CCC(=O)NC4=O)C5=O)CC3)cc(=O)c2c1 (stereo partly shown) [Example I-144] | 
1000 to 10000 | Cc1cc([C@@H](C)Nc2ccccc2C(=O)O)c2oc(N3CCN(C(=O)CCOCCNc4cccc5c4C(=O)N(C4CCC(=O)NC4=O)C5=O)CC3)cc(=O)c2c1 (stereo partly shown) [Example I-145] | 
1000 to 10000 | Cc1cc([C@@H](C)Nc2ccccc2C(=O)O)c2oc(N3CCN(C(=O)CCCNc4ccc5c(c4)C(=O)N(C4CCC(=O)NC4=O)C5=O)CC3)cc(=O)c2c1 (stereo partly shown) [Example I-146] | 
1000 to 10000 | Cc1cc([C@H](C)Nc2ccccc2C(=O)O)c2oc(N3CCN(C(=O)CCCNc4ccc5c(c4)C(=O)N(C4CCC(=O)NC4=O)C5=O)CC3)cc(=O)c2c1 (stereo partly shown) [Example I-147] | 
1000 to 10000 | Cc1cc([C@H](C)Nc2ccccc2C(=O)O)c2oc(N3CCN(C(=O)CCOCCNc4cccc5c4C(=O)N(C4CCC(=O)NC4=O)C5=O)CC3)cc(=O)c2c1 (stereo partly shown) [Example I-148] | 
1000 to 10000 | Cc1cc([C@@H](C)Nc2ccccc2C(=O)O)c2oc(N3CCN(C(=O)CCC(=O)NCc4ccc5c(c4)C(=O)N(C4CCC(=O)NC4=O)C5)CC3)cc(=O)c2c1 (stereo partly shown) [Example I-149] | 
1000 to 10000 | O=C1CCC(N2Cc3cc(C(=O)NCCCCCCCCNC(=O)c4cc(NC(=O)c5cccc(C(F)(F)F)c5)c5c(c4)C(=O)N[C@@H]5c4cc(F)ccc4Cl)ccc3C2=O)C(=O)N1 (stereo partly shown) [Example I-150] | 
1000 to 10000 | O=C1CCC(N2C(=O)c3ccc(NCCOCCOCCOCCOCCOCCOCCOCCOCCOCCOCCOCCOCCNC(=O)c4cc(NC(=O)c5cc(F)cc(C(F)(F)F)c5)c5c(c4)C(=O)N[C@@H]5c4cc(F)ccc4Cl)cc3C2=O)C(=O)N1 (stereo partly shown) [Example I-151] | 
100 to 500 | O=C1CCC(N2Cc3cc(C(=O)NCCCCCCCCCCNC(=O)c4cc(NC(=O)c5cccc(C(F)(F)F)c5)c5c(c4)C(=O)N[C@H]5c4cc(F)ccc4Cl)ccc3C2=O)C(=O)N1 (stereo partly shown) [Example I-152] | 
1000 to 10000 | O=C1CCC(N2Cc3cc(C(=O)NCCOCCOCCOCCOCCOCCOCCOCCOCCOCCOCCOCCOCCNC(=O)c4cc(NC(=O)c5cc(F)cc(C(F)(F)F)c5)c5c(c4)C(=O)N[C@@H]5c4cc(F)ccc4Cl)ccc3C2=O)C(=O)N1 (stereo partly shown) [Example I-153] | 
1000 to 10000 | O=C1CCC(N2Cc3cc(C(=O)NCCCCCCCCCCNC(=O)c4cc(NC(=O)c5cccc(C(F)(F)F)c5)c5c(c4)C(=O)N[C@@H]5c4cc(F)ccc4Cl)ccc3C2=O)C(=O)N1 (stereo partly shown) [Example I-154] | 
1000 to 10000 | O=C1CCC(N2Cc3cc(C(=O)NCCCCCCCCCNC(=O)c4cc(NC(=O)c5cccc(C(F)(F)F)c5)c5c(c4)C(=O)N[C@@H]5c4cc(F)ccc4Cl)ccc3C2=O)C(=O)N1 (stereo partly shown) [Example I-155] | 
< 100 | O=C1CCC(N2C(=O)c3ccc(NCCOCCOCCOCCOCCOCCOCCOCCOCCOCCOCCOCCOCCNC(=O)c4cc(NC(=O)c5cc(F)cc(C(F)(F)F)c5)c5c(c4)C(=O)N[C@H]5c4cc(F)ccc4Cl)cc3C2=O)C(=O)N1 (stereo partly shown) [Example I-156] | 
500 to 1000 | O=C1CCC(N2Cc3cc(C(=O)NCCOCCOCCOCCOCCOCCOCCOCCOCCOCCOCCOCCOCCNC(=O)c4cc(NC(=O)c5cc(F)cc(C(F)(F)F)c5)c5c(c4)C(=O)N[C@H]5c4cc(F)ccc4Cl)ccc3C2=O)C(=O)N1 (stereo partly shown) [Example I-157] | 
< 100 | O=C1CCC(N2Cc3cc(C(=O)NCCCCCCCCNC(=O)c4cc(NC(=O)c5cccc(C(F)(F)F)c5)c5c(c4)C(=O)N[C@H]5c4cc(F)ccc4Cl)ccc3C2=O)C(=O)N1 (stereo partly shown) [Example I-158] | 
< 100 | O=C1CCC(N2Cc3cc(C(=O)NCCCCCCCCCNC(=O)c4cc(NC(=O)c5csc6ccccc56)c5c(c4)C(=O)NC5c4cc(F)ccc4Cl)ccc3C2=O)C(=O)N1 (stereo not shown) [Example I-159] | 
100 to 500 | O=C1CCC(N2Cc3cc(C(=O)NCCCCCCCCCNC(=O)c4cc(NC(=O)c5cccc(F)c5)c5c(c4)C(=O)N[C@H]5c4cc(F)ccc4Cl)ccc3C2=O)C(=O)N1 (stereo partly shown) [Example I-160] | 
1000 to 10000 | O=C1CCC(N2Cc3cc(C(=O)NCCCCCCCCCNC(=O)c4cc(NC(=O)c5cccc(F)c5)c5c(c4)C(=O)N[C@@H]5c4cc(F)ccc4Cl)ccc3C2=O)C(=O)N1 (stereo partly shown) [Example I-161] | 
500 to 1000 | O=C1CCC(N2Cc3cc(C(=O)NCCCCCCCCCNC(=O)c4cc(NC(=O)c5cccc(C(F)(F)F)c5)c5c(c4)C(=O)N[C@H]5c4cc(F)ccc4Cl)ccc3C2=O)C(=O)N1 (stereo partly shown) [Example I-162] | 

The remaining lines, values behind:

Compound | IC50 (PI3Kα) [nM] | IC50 (MCF10A) [nM]
Cc1ccccc1Nc1ncc(C(=O)NCCCCCCCCCC(=O)N[C@H](C(=O)N2C[C@H](O)C[C@H]2C(=O)N[C@@H](C)c2ccc(-c3scnc3C)cc2)C(C)(C)C)cc1NC(=O)c1csc2ccccc12 [Example 1-7] | 100 to 500 | 10000 to 36000
Cc1ccccc1Nc1ncc(C(=O)NCCCCCNC(=O)c2ccc3c(c2)CN(C2CCC(=O)NC2=O)C3=O)cc1NC(=O)c1csc2ccccc12 (stereo not shown) [Example I-1] | 100 to 500 | 10000 to 36000
Cc1ccccc1Nc1ncc(C(=O)NCCCCCCCCCNC(=O)c2ccc3c(c2)CN(C2CCC(=O)NC2=O)C3=O)cc1NC(=O)c1csc2ccccc12 (stereo not shown) [Example I-2] | 500 to 1000 | 10000 to 36000
Cc1ccccc1Nc1ncc(C(=O)NCCCCCCCCCC(=O)NCc2ccc3c(c2)CN(C2CCC(=O)NC2=O)C3=O)cc1NC(=O)c1csc2ccccc12 (stereo not shown) [Example I-3] | 100 to 500 | 10000 to 36000
Cc1ccccc1Nc1ncc(C(=O)NCCOCCOCCOCCC(=O)N[C@H](C(=O)N2C[C@H](O)C[C@H]2C(=O)N[C@@H](C)c2ccc(-c3scnc3C)cc2)C(C)(C)C)cc1NC(=O)c1csc2ccccc12 [Example I-4] | 1000 to 10000 | 10000 to 36000
Cc1ccccc1Nc1ncc(C(=O)NCCCCCCCNC(=O)c2ccc3c(c2)CN(C2CCC(=O)NC2=O)C3=O)cc1NC(=O)c1csc2ccccc12 (stereo not shown) [Example I-5] | 100 to 500 | 10000 to 36000
Cc1ccccc1Nc1ncc(C(=O)NCCCCCCCC(=O)NCc2ccc3c(c2)CN(C2CCC(=O)NC2=O)C3=O)cc1NC(=O)c1csc2ccccc12 (stereo not shown) [Example I-6] | 100 to 500 | 10000 to 36000
Cc1ccccc1Nc1ncc(C(=O)NCCCCCCCC(=O)N[C@H](C(=O)N2C[C@H](O)C[C@H]2C(=O)N[C@@H](C)c2ccc(-c3scnc3C)cc2)C(C)(C)C)cc1NC(=O)c1csc2ccccc12 [Example I-8] | 100 to 500 | 10000 to 36000
Cc1ccccc1Nc1ncc(C(=O)NCCCCCC(=O)NCc2ccc3c(c2)CN(C2CCC(=O)NC2=O)C3=O)cc1NC(=O)c1csc2ccccc12 (stereo not shown) [Example I-9] | 100 to 500 | 10000 to 36000
Cc1ccccc1Nc1ncc(C(=O)NCCCCCCCCCC(=O)N[C@H](C(=O)N2C[C@H](O)C[C@H]2C(=O)NCc2ccc(-c3scnc3C)cc2)C(C)(C)C)cc1NC(=O)c1csc2ccccc12 [Example I-10] | 100 to 500 | 10000 to 36000
Cc1ccccc1Nc1ncc(C(=O)NCCOCCOCCOCCOCCOCCC(=O)N[C@H](C(=O)N2C[C@H](O)C[C@H]2C(=O)N[C@@H](C)c2ccc(-c3scnc3C)cc2)C(C)(C)C)cc1NC(=O)c1csc2ccccc12 [Example I-11] | 1000 to 10000 | 10000 to 36000
Cc1cc([C@H](C)Nc2ccccc2C(=O)O)c2oc(N3CCN(C(=O)CCCCCNc4ccc5c(c4)C(=O)N(C4CCC(=O)NC4=O)C5=O)CC3)cc(=O)c2c1 (stereo partly shown) [Example I-128] | 1000 to 10000 | 
Cc1cc([C@H](C)Nc2ccccc2C(=O)O)c2oc(N3CCN(C(=O)CCCCCCNc4ccc5c(c4)C(=O)N(C4CCC(=O)NC4=O)C5=O)CC3)cc(=O)c2c1 (stereo partly shown) [Example I-129] | 1000 to 10000 | 
Cc1cc([C@H](C)Nc2ccccc2C(=O)O)c2oc(N3CCN(C(=O)CCNc4ccc5c(c4)C(=O)N(C4CCC(=O)NC4=O)C5=O)CC3)cc(=O)c2c1 (stereo partly shown) [Example I-130] | 1000 to 10000 | 
Cc1cc([C@@H](C)Nc2ccccc2C(=O)O)c2oc(N3CCN(C(=O)CCCCCNc4ccc5c(c4)C(=O)N(C4CCC(=O)NC4=O)C5=O)CC3)cc(=O)c2c1 (stereo partly shown) [Example I-132] | 500 to 1000 | 
Cc1cc([C@H](C)Nc2ccccc2C(=O)O)c2oc(N3CCN(C(=O)CCCNc4cccc5c4C(=O)N(C4CCC(=O)NC4=O)C5=O)CC3)cc(=O)c2c1 (stereo partly shown) [Example I-133] | 1000 to 10000 | 
Cc1cc([C@H](C)Nc2ccccc2C(=O)O)c2oc(N3CCN(C(=O)CCNc4cccc5c4C(=O)N(C4CCC(=O)NC4=O)C5=O)CC3)cc(=O)c2c1 (stereo partly shown) [Example I-134] | 1000 to 10000 | 
Cc1cc([C@@H](C)Nc2ccccc2C(=O)O)c2oc(N3CCN(C(=O)CCNc4cccc5c4C(=O)N(C4CCC(=O)NC4=O)C5=O)CC3)cc(=O)c2c1 (stereo partly shown) [Example I-135] | 500 to 1000 | 
Cc1cc([C@H](C)Nc2ccccc2C(=O)O)c2oc(N3CCN(C(=O)CCCCCCCNc4cccc5c4C(=O)N(C4CCC(=O)NC4=O)C5=O)CC3)cc(=O)c2c1 (stereo partly shown) [Example I-136] | 1000 to 10000 | 
Cc1cc([C@H](C)Nc2ccccc2C(=O)O)c2oc(N3CCN(C(=O)CCCCCNc4cccc5c4C(=O)N(C4CCC(=O)NC4=O)C5=O)CC3)cc(=O)c2c1 (stereo partly shown) [Example I-137] | 1000 to 10000 | 
Cc1cc([C@H](C)Nc2ccccc2C(=O)O)c2oc(N3CCN(C(=O)CCOCCNc4ccc5c(c4)C(=O)N(C4CCC(=O)NC4=O)C5=O)CC3)cc(=O)c2c1 (stereo partly shown) [Example I-138] | 1000 to 10000 | 
Cc1cc([C@@H](C)Nc2ccccc2C(=O)O)c2oc(N3CCN(C(=O)CCNc4ccc5c(c4)C(=O)N(C4CCC(=O)NC4=O)C5=O)CC3)cc(=O)c2c1 (stereo partly shown) [Example I-140] | 500 to 1000 | 
Cc1cc([C@@H](C)Nc2ccccc2C(=O)O)c2oc(N3CCN(C(=O)CCCNc4cccc5c4C(=O)N(C4CCC(=O)NC4=O)C5=O)CC3)cc(=O)c2c1 (stereo partly shown) [Example I-141] | 500 to 1000 | 
Cc1cc([C@@H](C)Nc2ccccc2C(=O)O)c2oc(N3CCN(C(=O)CCCCCNc4cccc5c4C(=O)N(C4CCC(=O)NC4=O)C5=O)CC3)cc(=O)c2c1 (stereo partly shown) [Example I-142] | 500 to 1000 | 
